Measurements taken from patent US6723753B2, “Substituted n-benzyl-n-phenyl aminoalcohol compounds useful for inhibiting cholesteryl ester transfer protein activity” (Pharmacia Corporation, priority 2002, dated 2004).

What was measured:
CETP [1] = target: T1, CETP (Homo sapiens, UniProt P11597); assay: Assay of CETP Inhibition using Purified Components (Reconstituted Buffer Assay); assay type: biochemical; design: made in house; host or cells: CHO cells (serum-free conditioned medium); conditions: transfer of [3H]CE from HDL to LDL
T1 sequence (P11597 18-493): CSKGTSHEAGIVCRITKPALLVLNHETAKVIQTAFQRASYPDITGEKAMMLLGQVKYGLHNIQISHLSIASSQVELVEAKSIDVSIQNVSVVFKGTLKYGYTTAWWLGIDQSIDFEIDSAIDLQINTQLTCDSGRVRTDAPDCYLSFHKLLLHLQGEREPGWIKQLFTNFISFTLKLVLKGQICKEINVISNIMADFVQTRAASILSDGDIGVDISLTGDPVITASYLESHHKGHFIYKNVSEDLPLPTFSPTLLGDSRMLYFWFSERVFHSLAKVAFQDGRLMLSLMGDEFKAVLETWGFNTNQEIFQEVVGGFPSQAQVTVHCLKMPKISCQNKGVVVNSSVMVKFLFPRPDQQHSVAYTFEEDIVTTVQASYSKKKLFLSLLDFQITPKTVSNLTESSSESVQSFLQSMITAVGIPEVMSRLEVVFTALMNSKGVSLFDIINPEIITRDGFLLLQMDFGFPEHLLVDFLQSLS
Summary of the method: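 Transfer of radiolabeled cholesteryl ester from HDL to LDL was run for 2 h at 37 °C in pH 7.4 Tris buffer with 1% BSA, using purified CHO-expressed human CETP. Precipitated LDL radioactivity, measured by scintillation after dextran sulfate/MgCl2 precipitation and filtration, yielded the IC50.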

CETP [2] = target: T1, CETP; assay: Assay of CETP Inhibition in Human Plasma; assay type: biochemical; design: Blood was obtained from healthy volunteers, recruited from the personnel of Monsanto Company; from tissue; host or cells: human EDTA plasma pool from healthy volunteers; conditions: transfer of [3H]CE from HDL to VLDL and LDL
Procedure: Assay of CETP Inhibition in Human Plasma
Blood was obtained from healthy volunteers, recruited from the personnel of Monsanto Company, Saint Louis, Mo. Blood was collected in tubes containing EDTA (EDTA plasma pool). The EDTA human plasma pool, previously stored at −20° C., was thawed at room temperature and centrifuged for 5 minutes to remove any particulate matter. […] Equal volumes (396 μL) of the plasma containing the [^3H]CE-HDL were added by pipette into micro tubes (Titertube®, Bio-Rad laboratories, Hercules, Calif.). Inhibitor compounds, dissolved as 20-50 mM stock solutions in DMSO, were serially diluted in DMSO (or an alternative solvent in some cases, such as dimethylformamide or ethanol). Four μL of each of the serial dilutions of inhibitor compounds or DMSO alone were then added to each of the tubes containing plasma (396 μL). After mixing, triplicate aliquots (100 μL) from each plasma tube were then transferred to wells of 96-well round-bottomed polystyrene microtiter plates (Corning, Corning, N.Y.). Plates were sealed with plastic film and incubated at 37° C. for 4 hours. “Test” samples contained plasma with dilutions of inhibitor compounds. “Control” samples contained plasma with DMSO diluted to the same concentration as the test samples, but without inhibitor. “Blank” samples were prepared as “control” samples, but were left in the micro tubes at 4° C. for the 4 hour incubation and were then added to the microtiter wells at the end of the incubation period. VDL and LDL were precipitated by the addition of 10 μL of precipitating reagent (1% (w/v) dextran sulfate (Dextralip50)/0.5 M magnesium chloride, pH 7.4) to all wells. The wells were mixed on a plate mixer and then incubated at ambient temperature for 10 min. The plates were then centrifuged at 1000× g for 30 min at 10° C. The supernatants (50 μL) from each well were then transferred to Picoplate™ 96 plate wells (Packard, Meriden, Conn.) containing Microscint™-40 (Packard, Meriden, Conn.). The plates were heat-sealed (TopSeal™-P, Packard, Meriden, Conn.) according to the manufacturer's directions and mixed for 30 min. Radioactivity was measured on a microplate scintillation counter (TopCount, Packard, Meriden, Conn.). The maximum percentage transfer in the control wells (% transfer) was determined using the following equation: [formula]
The percentage of transfer relative to the control (% control) was determined in the wells containing inhibitor compounds was determined as follows: [formula]
IC50 values were then calculated from plots of % control versus concentration of inhibitor compound.

[3] = Inhibition of CETP activity in reconstituted buffer assay, read-out: IC50
[4] = Inhibition of CETP activity in human plasma assay, read-out: IC50
[5] = IC50, Inhibition of CETP activity in reconstituted buffer assay

| IC50 (CETP [1]; [3]) [µM] | IC50 (CETP [2]; [4]) [µM] | SMILES | IC50 (CETP [1]; [5]) [µM] | IC50 (CETP [2]; IC50, Inhibition of CETP activity in human plasma assay) [µM] |
| --- | --- | --- | --- | --- |
| 15 | 500 | Cc1ccc(CN(CC(O)C(F)(F)F)c2cccc(F)c2)cc1 (stereo not drawn) [Example 33] |  |  |
| 16 | > 200 | OC(CN(Cc1cccc(C(F)(F)F)c1)c1ccccc1)C(F)(F)F (stereo not drawn) [Example 35] |  |  |
| 4 | > 200 | OC(CN(Cc1cccc(OC(F)(F)F)c1)c1cccc(Br)c1)C(F)(F)F (stereo not drawn) [Example 36] |  |  |
| 7 | 80 | OC(CN(Cc1cccc(OC(F)(F)F)c1)c1cccc(C(F)(F)F)c1)C(F)(F)F (stereo not drawn) [Example 42] |  |  |
| 4 | 110 | OC(CN(Cc1cccc(OC(F)(F)C(F)F)c1)c1cccc(F)c1)C(F)(F)F (stereo not drawn) [Example 43] |  |  |
|  |  | OC(CN(Cc1ccc(OC(F)(F)F)cc1)c1cccc(Oc2ccccc2)c1)C(F)(F)F (stereo not drawn) [Example 63] | 3.5 | 120 |
| 4 | 120 | OC(CN(Cc1cccc(OC(F)(F)F)c1)c1cccc(-c2ccccc2)c1)C(F)(F)F (stereo not drawn) [Example 66] |  |  |
| 2 | 65 | OC(CN(Cc1cccc(OC(F)(F)C(F)F)c1)c1cc(F)ccc1F)C(F)(F)F (stereo not drawn) [Example 70] |  |  |
| 1.2 | 36 | OC(CN(Cc1cccc(OC(F)(F)C(F)F)c1)c1cccc(OC(F)(F)F)c1)C(F)(F)F (stereo not drawn) [Example 71] |  |  |
| 7 | 200 | OC(CN(Cc1ccc(C(F)(F)F)cc1)c1ccc(F)c(C(F)(F)F)c1)C(F)(F)F (stereo not drawn) [Example 75] |  |  |
| 6 | > 200 | OC(CN(Cc1cccc(OC(F)(F)F)c1)c1ccc2ccccc2c1)C(F)(F)F (stereo not drawn) [Example 76] |  |  |
| 1.5 | 60 | OC(CN(Cc1cccc(OC(F)(F)F)c1)c1ccc(-c2ccccc2)cc1)C(F)(F)F (stereo not drawn) [Example 79] |  |  |
| 4 | 60 | OC(CN(Cc1cccc(OC(F)(F)C(F)F)c1)c1ccc(-c2ccccc2)cc1)C(F)(F)F (stereo not drawn) [Example 87] |  |  |
| 2.3 | 60 | OC(CN(Cc1cccc(OC(F)(F)F)c1)c1ccc2c(c1)OC(F)(F)C(F)(F)O2)C(F)(F)F (stereo not drawn) [Example 89] |  |  |
| 3 | > 100 | OC(CCl)COc1cccc(CN(CC(O)C(F)(F)F)c2cccc(OC(F)(F)F)c2)c1 (stereo not drawn) [Example 104] |  |  |
| 3 | > 100 | OC(CN(Cc1cccc(Oc2cccc(C(F)(F)F)c2)c1)c1cccc(Oc2ccccc2)c1)C(F)(F)F (stereo not drawn) [Example 115] |  |  |
| 4 | 45 | OC(CN(Cc1cccc(OC(F)(F)F)c1)c1cccc(OCc2ccccc2)c1)C(F)(F)F (stereo not drawn) [Example 126] |  |  |
| 7 | > 100 | OC(CN(Cc1cccc(Oc2ccccc2)c1)c1cccc(OCc2ccccc2)c1)C(F)(F)F (stereo not drawn) [Example 127] |  |  |
| 2.4 | 35 | CCOc1cccc(N(Cc2cccc(OC(F)(F)F)c2)CC(O)C(F)(F)F)c1 (stereo not drawn) [Example 128] |  |  |
| 10 | > 100 | OC(CN(Cc1cccc(OC(F)(F)F)c1)c1ccc2c(c1)OCCO2)C(F)(F)F (stereo not drawn) [Example 131] |  |  |
| 1.6 | 80 | OC(CN(Cc1ccc(C(F)(F)F)cc1)c1cccc(OC(F)(F)F)c1)C(F)(F)F (stereo not drawn) [Example 140] |  |  |
| 5 | > 100 | OC(CN(Cc1ccc(C(F)(F)F)cc1)c1ccc(-c2ccccc2)cc1)C(F)(F)F (stereo not drawn) [Example 141] |  |  |
| 1.6 | > 100 | OC(CN(Cc1cccc(C(F)(F)F)c1)c1cccc(Oc2ccccc2)c1)C(F)(F)F (stereo not drawn) [Example 149] |  |  |
| 1.7 | 80 | OC(CN(Cc1ccc(C(F)(F)F)cc1)c1cccc(Oc2ccccc2)c1)C(F)(F)F (stereo not drawn) [Example 150] |  |  |

| IC50 (CETP [1]; [3]) [µM] | IC50 (CETP [2]; [4]) [µM] | SMILES | IC50 (CETP [1]; [5]) [µM] | IC50 (CETP [2]; IC50, Inhibition of CETP activity in human plasma assay) [µM] |
| --- | --- | --- | --- | --- |
| 0.78 | 30 | OC(CN(Cc1cccc(OC(F)(F)F)c1)c1cccc(Oc2ccc(F)cc2)c1)C(F)(F)F (stereo not drawn) [Example 166] |  |  |
| 2.5 | > 100 | COc1ccc(Oc2ccc(CN(CC(O)C(F)(F)F)c3cccc(Oc4ccccc4)c3)cc2)cc1 (stereo not drawn) [Example 168] |  |  |
| 4 | 110 | OC(CN(Cc1cccc(OC(F)(F)F)c1)c1ccc2c(c1)Cc1ccccc1-2)C(F)(F)F (stereo not drawn) [Example 201] |  |  |
| 3.5 | > 100 | OC(CN(Cc1cccc(OC(F)(F)F)c1)c1ccc2c(c1)Cc1cc(Br)ccc1-2)C(F)(F)F (stereo not drawn) [Example 204] |  |  |
|  | > 100 | OC(CN(Cc1cccc(-c2ccccc2C(F)(F)F)c1)c1cccc(Oc2ccccc2)c1)C(F)(F)F (stereo not drawn) [Example 600, 3-[(3-phenoxyphenyl)[[2′-(trifluoromethyl)[1,1′-biphenyl]-3-yl]methyl]amino]-1,1,1-trifluoro-2-propanol] |  |  |
| 10 |  | OC(CN(Cc1cccc(Cl)c1)Cc1cccc(OC(F)(F)F)c1)C(F)(F)F (stereo not drawn) [compound 193] |  |  |
| 7 |  | OC(CN(Cc1cccc(Br)c1)Cc1cccc(OC(F)(F)F)c1)C(F)(F)F (stereo not drawn) [compound 194] |  |  |
|  |  | OC(CN(Cc1cccc(Oc2ccccc2)c1)Cc1cccc(OC(F)(F)F)c1)C(F)(F)F (stereo not drawn) [compound 195] | 30 |  |
| 40 |  | OC(CN(Cc1ccc(-c2ccccc2)cc1)Cc1cccc(OC(F)(F)F)c1)C(F)(F)F (stereo not drawn) [compound 196] |  |  |
| 18 |  | O=[N+]([O-])c1cccc(CN(Cc2cccc(OC(F)(F)F)c2)CC(O)C(F)(F)F)c1 (stereo not drawn) [compound 197] |  |  |
| 15 |  | OC(CN(CCc1cccc(F)c1)Cc1cccc(OC(F)(F)C(F)F)c1)C(F)(F)F (stereo not drawn) [compound 198] |  |  |
| 9.2 |  | COc1cc(N(Cc2cccc(C(F)(F)F)c2)CC(O)C(F)(F)F)cc(C(F)(F)F)c1 (stereo not drawn) [compound 215] |  |  |
| 8.1 |  | OC(CN(Cc1cccc(OC(F)(F)C(F)F)c1)c1cccc(Sc2ccccc2)c1)C(F)(F)F (stereo not drawn) [compound 290] |  |  |
| 8.4 |  | COc1ccc(Sc2cccc(N(Cc3cccc(OC(F)(F)C(F)F)c3)CC(O)C(F)(F)F)c2)cc1 (stereo not drawn) [compound 291] |  |  |
| 1.7 |  | CC(C)C(O)c1cccc(N(Cc2cccc(OC(F)(F)C(F)F)c2)CC(O)C(F)(F)F)c1 (stereo not drawn) [compound 584] |  |  |
| 4.2 |  | Cc1ccc(CN(CC(O)C(F)(F)F)c2cccc(Oc3ccccc3)c2)cc1-c1ccco1 (stereo not drawn) [compound 594] |  |  |
| 10 |  | CCN(C)C(=O)c1cccc(CN(CC(O)C(F)(F)F)c2cccc(Oc3ccccc3)c2)c1 (stereo not drawn) [compound 613] |  |  |
| > 100 |  | CCCN(C)C(=O)c1cccc(CN(CC(O)C(F)(F)F)c2cccc(Oc3ccccc3)c2)c1 (stereo not drawn) [compound 614] |  |  |
| > 100 |  | CCCCN(C)C(=O)c1cccc(CN(CC(O)C(F)(F)F)c2cccc(Oc3ccccc3)c2)c1 (stereo not drawn) [compound 615] |  |  |
| 18 |  | O=C(c1cccc(CN(CC(O)C(F)(F)F)c2cccc(Oc3ccccc3)c2)c1)N1CCCC1 (stereo not drawn) [compound 616] |  |  |
| 9.3 |  | CC(C)CC(=O)c1cccc(CN(CC(O)C(F)(F)F)c2cccc(Oc3ccccc3)c2)c1 (stereo not drawn) [compound 621] |  |  |
| 1.6 |  | OC(CN(Cc1cccc(OC(F)(F)C(F)F)c1)c1cc(Oc2ccc(F)cc2)cc(C(F)(F)F)c1)C(F)(F)F (stereo not drawn) [compound 644] |  |  |
| 15 |  | OC(CN(Cc1cccc(Cl)c1)Cc1cccc(OC(F)(F)F)c1)C(F)(F)F (stereo not drawn) [compound 694] |  |  |
